Experimental data taken from the NIST ThermoML archive (doi:10.1016/j.jct.2008.04.010).
Values joined by “and” are separate entries in the source; they are usually repeats but may differ in a detail not shown here. Equal entries are not always repeated. ± gives the expanded uncertainty stated by the source.

How the values were obtained:
[1] = molar enthalpy of vaporization or sublimation; settings: 298.15 K; Liquid; Calvet microcalorimetry
[2] = for vapor or sublimation pressure: Calculated from knudsen effusion weight loss; for Normal melting temperature: DTA
[3] = Molar enthalpy of transition or fusion; settings: Crystal; DSC

c1ccc(-c2cccc3ccccc23)cc1 [1-phenylnaphthalene]
molar enthalpy [1]: 19.4 ± 0.86 kcal/mol

c1ccc(-c2cccc(-c3ccc4ccccc4c3)c2)cc1 [2-(biphen-3-yl)naphthalene]
vapor or sublimation pressure ([2]; 381.08 K, Liquid): 8.1e-05 ± 4e-06 kPa and 8.3e-05 ± 4e-06 kPa | vapor or sublimation pressure ([2]; 385.17 K, Liquid): 0.000117 ± 6e-06 kPa | vapor or sublimation pressure ([2]; 389.15 K, Liquid): 0.000174 ± 9e-06 kPa | vapor or sublimation pressure ([2]; 389.17 K, Liquid): 0.000177 ± 9e-06 kPa | vapor or sublimation pressure ([2]; 393.18 K, Liquid): 0.000216 ± 1.1e-05 kPa and 0.000218 ± 1.1e-05 kPa and 0.000223 ± 1.1e-05 kPa | vapor or sublimation pressure ([2]; 397.15 K, Liquid): 0.000323 ± 1.6e-05 kPa and 0.000303 ± 1.5e-05 kPa | vapor or sublimation pressure ([2]; 397.17 K, Liquid): 0.000315 ± 1.6e-05 kPa | vapor or sublimation pressure ([2]; 401.14 K, Liquid): 0.00041 ± 2.1e-05 kPa and 0.000429 ± 2.1e-05 kPa and 0.000427 ± 2.1e-05 kPa | vapor or sublimation pressure ([2]; 405.18 K, Liquid): 0.000546 ± 2.7e-05 kPa and 0.000585 ± 2.9e-05 kPa and 0.000588 ± 2.9e-05 kPa | vapor or sublimation pressure ([2]; 409.08 K, Liquid): 0.000767 ± 3.8e-05 kPa and 0.000773 ± 3.9e-05 kPa and 0.00079 ± 4e-05 kPa | vapor or sublimation pressure ([2]; 413.17 K, Liquid): 0.001087 ± 0.00011 kPa and 0.001156 ± 0.00012 kPa | Normal melting temperature ([2]; Crystal): 73.2 ± 0.4 °C | Molar enthalpy of transition or fusion [3]: 4.42 ± 0.129 kcal/mol

c1ccc(-c2ccc(-c3ccc4ccccc4c3)cc2)cc1 [2-(biphen-4-yl)naphthalene]
vapor or sublimation pressure ([2]; 405.17 K, Crystal): 6.2e-05 ± 3e-06 kPa and 6.3e-05 ± 3e-06 kPa | vapor or sublimation pressure ([2]; 409.14 K, Crystal): 9.1e-05 ± 5e-06 kPa and 8.8e-05 ± 4e-06 kPa and 8.9e-05 ± 4e-06 kPa | vapor or sublimation pressure ([2]; 411.18 K, Crystal): 0.000111 ± 6e-06 kPa and 0.000112 ± 6e-06 kPa | vapor or sublimation pressure ([2]; 413.18 K, Crystal): 0.000131 ± 7e-06 kPa and 0.000135 ± 7e-06 kPa and 0.000134 ± 7e-06 kPa | vapor or sublimation pressure ([2]; 415.14 K, Crystal): 0.000164 ± 8e-06 kPa and 0.00016 ± 8e-06 kPa and 0.000161 ± 8e-06 kPa | vapor or sublimation pressure ([2]; 417.19 K, Crystal): 0.000197 ± 1e-05 kPa | vapor or sublimation pressure ([2]; 419.09 K, Crystal): 0.000237 ± 1.2e-05 kPa and 0.000235 ± 1.2e-05 kPa and 0.00023 ± 1.2e-05 kPa | vapor or sublimation pressure ([2]; 421.14 K, Crystal): 0.000283 ± 1.4e-05 kPa and 0.00028 ± 1.4e-05 kPa | vapor or sublimation pressure ([2]; 423.09 K, Crystal): 0.000339 ± 1.7e-05 kPa and 0.000342 ± 1.7e-05 kPa and 0.000336 ± 1.7e-05 kPa | vapor or sublimation pressure ([2]; 425.19 K, Crystal): 0.000418 ± 2.1e-05 kPa and 0.000424 ± 2.1e-05 kPa and 0.000416 ± 2.1e-05 kPa | vapor or sublimation pressure ([2]; 429.21 K, Crystal): 0.000609 ± 3e-05 kPa and 0.000597 ± 3e-05 kPa | vapor or sublimation pressure ([2]; 433.15 K, Crystal): 0.000855 ± 4.3e-05 kPa and 0.000839 ± 4.2e-05 kPa | vapor or sublimation pressure ([2]; 437.19 K, Crystal): 0.001171 ± 0.00012 kPa and 0.001222 ± 0.00013 kPa and 0.001194 ± 0.00012 kPa | Normal melting temperature ([2]; Crystal): 216.4 ± 1.1 °C | Molar enthalpy of transition or fusion [3]: 6 ± 0.134 kcal/mol

c1ccc(-c2ccc3ccccc3c2)cc1 [2-phenylnaphthalene]
vapor or sublimation pressure ([2]; 333.11 K, Crystal): 0.000132 ± 7e-06 kPa and 0.000137 ± 7e-06 kPa | vapor or sublimation pressure ([2]; 335.63 K, Crystal): 0.000185 ± 9e-06 kPa and 0.000183 ± 9e-06 kPa and 0.00018 ± 9e-06 kPa | vapor or sublimation pressure ([2]; 338.2 K, Crystal): 0.000244 ± 1.2e-05 kPa and 0.000239 ± 1.2e-05 kPa | vapor or sublimation pressure ([2]; 340.61 K, Crystal): 0.00032 ± 1.6e-05 kPa and 0.000316 ± 1.6e-05 kPa and 0.000318 ± 1.6e-05 kPa | vapor or sublimation pressure ([2]; 343.13 K, Crystal): 0.00042 ± 2.1e-05 kPa and 0.000421 ± 2.1e-05 kPa and 0.000419 ± 2.1e-05 kPa | vapor or sublimation pressure ([2]; 345.69 K, Crystal): 0.000558 ± 2.8e-05 kPa and 0.000553 ± 2.8e-05 kPa and 0.000544 ± 2.7e-05 kPa | vapor or sublimation pressure ([2]; 348.12 K, Crystal): 0.000729 ± 3.7e-05 kPa and 0.000707 ± 3.5e-05 kPa and 0.000716 ± 3.6e-05 kPa | vapor or sublimation pressure ([2]; 350.62 K, Crystal): 0.000939 ± 4.7e-05 kPa and 0.000941 ± 4.7e-05 kPa and 0.000909 ± 4.6e-05 kPa | vapor or sublimation pressure ([2]; 353.19 K, Crystal): 0.001212 ± 0.00013 kPa and 0.001224 ± 0.00013 kPa and 0.001185 ± 0.00012 kPa | Normal melting temperature ([2]; Crystal): 100.4 ± 0.5 °C | Molar enthalpy of transition or fusion [3]: 4.28 ± 0.11 kcal/mol
